In patent publication US11560391B2, “Sulfonylurea compounds as inhibitors of interleukin-1 activity” (Genentech, Inc., priority 2018, dated 2023):
Read-outs that look alike come from different tables or passages of the source.

Legend:
[1] = tested on: THP-1 ASC-GFP cells; assay: THP-1 ASC-GFP speck assay (NLRP3 inflammasome activation, nigericin); assay type: cell-based; settings: THP1-ASC-GFP; PMA-differentiated, LPS primed, 10 μM nigericin
Description: THP-1 ASC-GFP cell line was purchased from Invivogen, San Diego, for infammasome activation assay. THP-1 ASC-GFP cells stably express a 37.6 kDa ASC::GFP fusion protein that enables monitoring of spec formation by microscopy after activation of NLRP3 dependent inflammasome pathway. Cells were maintained at a density of 600,000 cells/mL in growth media consisting of RPMI 1640, 2 mM L-glutamine, 25 mM HEPES and 10% heat inactivated fetal bovine serum at 37° C. and 5% CO2. Cells were passaged every 3-4 days and used for assays for up to 20 passages.
THP-1 ASC-GFP cells were collected by centrifuging cells at 800 RPM for 5 minutes. Cell culture supernatant was removed and cells were re-suspended in fresh media at density of 1×10^6 cells/mL in assay media consisting of RPMI 1640, 2 mM L-glutamine, 25 mM HEPES and 10% heat inactivated fetal bovine serum. Phorbol 12-myristate 13-acetate (PMA) (Invivogen,tlrl-pma) was added to the cell suspension at a final concentration of 500 ng/ml and mixed thoroughly. 40,000 cells were added per well of a 384 well plate and differentiated into macrophages overnight at 37° C. and 5% CO2. Cells were primed with 1 μg/mL of lipopolysaccharide (Invivogen Ultrapure lipopolysaccharide from E. coli, tlrl-3pelps) in assay media for 3 hours at 37° C. and 5% CO2. After priming, media was removed and THP-1 ASC-GFP cells were preincubated with serially diluted test compounds with starting concentration of 40 μM followed by 2-fold dilution for a 20-point curve or vehicle (DMSO) for 30 min in assay media at 37° C. and 5% CO2. Cells were then stimulated with 10 μM nigericin (Invivogen, tlrl-nig-5) for 90 min at 37° C. and 5% CO2 to activate NLRP3 dependent inflammasome pathway and spec formation. After stimulation, cells were fixed with 4.8% paraformaldehyde (Electron Microscopy Sciences #15710-S) and incubated at room temperature for 15 min. Cells were then washed 3-times with 100 μL of phosphate buffered saline and permeabilized in the presence of premeablization/block buffer for 20 min at room temperature. Cells were then washed 3-times with 100 μL phosphate buffered saline and incubated for 1 hr at room temperature in the presence of hoechst. After staining with Hoechst, cells were washed 3-times with 100 μL phosphate buffered saline and imaged for ASC spec formation.
THP-1 ASC-GFP cells were imaged in 488 and Hoechst channels. Hoechst channel was used for cell count and 488 channel was used to identify number of GFP ASC specks in imaged fields. Percentage of cells with a spec was calculated by dividing the number of GFP positive spots by total number of cells.

[2] = tested on: PBMCs; assay: CTG (CellTiter-Glo) viability assay of compound-treated LPS and nigericin stimulated PBMCs; assay type: cell-based, human; settings: Homo sapiens, PBMC; read-out: PMBC CTG IC50
Description: (§1) Human peripheral blood mononuclear cells (PBMCs), consisting of lymphocytes (T, B and NK cells), monocytes and dendritic cells, are freshly isolated from human peripheral blood from healthy donors. Cells are obtained through an IRB approved donor program by iXCells Biotechnologies where all the donors are tested for bacterial and viral infections. Cells are purified from peripheral blood using ficoll gradient centrifugation.
(§2) Fresh or cryopreserved PMBCs are seeded in V-bottom 96-well plate at 0.5-1×10^5 cells per well and incubated overnight at 37° C. with 5% CO2 in RPMI 1640 medium with GlutaMAX supplement, 4.5 g/L D-glucose, 10% Fetal Bovine Serum (FBS), […] Sodium Pyruvate, 1% Penicillin/Streptomycin, 10 mM HEPES and 0.05 mM of […]. Freshly isolated or cryopreserved KCs cells are seeded in flat-bottom 96-well plates at 0.6-1.5×10^5 cells/well and incubated overnight at 37° C., 5% CO2 in RPMI 1640 Medium with GlutaMAX supplement, FBS, 1% Penicillin/Streptomycin and 10 mM HEPES. The following day, the cells are primed with 100 ng/mL of lipopolysaccharides (LPS; Sigma Aldrich) in FBS-free RPMI 1640 for 3 h. After the priming step, the media is removed and PBMCs are pre-incubated with serial concentrations of test compounds (0.00017-10 uM) or vehicle (DMSO) for 30 min in FBS-free media prior to addition of the NLRP3 activator. Cells are then stimulated with 10 μM Nigericin (Sigma Aldrich; InvivoGen) for 1.5 h. Plates were centrifuged at 1,500 rpm for 3 minutes to pellet cells and supernatant was transferred into new plates for subsequent experiments.
Viability of compound treated cells is measured using CellTiter-Glo® assay (Promega, Madison, Wis.) that measures the ATP content of cells which is proportional to the number of live cells within a well. This is a counter-screen to establish that the reduction of IL-1β levels in LPS and nigericin stimulated and compound treated cells is not due to cytotoxicity, but rather through the inhibition of the inflammasome pathway. Compounds inhibiting NRLP3 inflammasome activation ultimately increase the viability of LPS and nigericin stimulated cells by blocking NLRP3 mediated pyroptosis that would otherwise lead to cell lysis.

[3] = molecular target: T1, NLRP3 inflammasome (Homo sapiens, UniProt Q96P20); assay: NLRP3 inflammasome activation assay in LPS-primed, nigericin-stimulated PBMCs, IL-1β release; assay type: cell-based; settings: PBMC, LPS priming, 10 μM nigericin
T1 construct: freshly isolated from human peripheral blood from healthy donors; StemCells Technologies; host or cells: primary human PBMCs
Description: Some of the following assays were used to determine the inhibitory activity of the compounds on the NLRP3 inflammasome using a common inflammasome activation stimuli-nigericin.
as §1, §2
For ELISA assays cells are seeded into 96-well plates. Post study, supernatants are removed and the levels of mature IL-1β, IL18 and TNFα (Quantikine ELISA, R&D systems) are measured in cell conditioned media by ELISA according to manufacturer's instructions.
Human frozen PBMCs were purchased from StemCells Technologies. Cells were rapidly thawed in 37° C. water bath and resuspended in fresh assay media consisting of RPMI 1640 Medium containing 1% sodium pyruvate, 10 mM HEPES, 2.5 g/L glucose and 55 μM 2-Mercaptoethanol. Cell density was adjusted to 8.1×10^5 cells/mL. Cells were primed by adding lipopolysaccharide (Invivogen Ultrapure lipopolysaccharide from E. coli, tlrl-3pelps) at a final concentration of 100 ng/mL in cell suspension. 37 μL of cell suspension with LPS was seeded per well of a 384 well plate and incubated for 3 hours at 37° C. and 5% CO2. After priming, PBMCs were preincubated with serially diluted test compounds with starting concentration of 40 μM followed by 2-fold dilution for a 20-point curve or vehicle (DMSO) for 30 min in assay media at 37° C. and 5% CO2. Cells were then stimulated with 10 μM nigericin (Invivogen, tlrl-nig-5) for 90 min at 37° C. and 5% CO2 to activate NLRP3 dependent inflammasome pathway and IL-1β release in cell culture supernatant. Cells were centrifuged at 1200 RPM for 1 min and 40 μL of supernatant was transferred into fresh plates and stored at −80° C. until IL-1β analysis.
16 μL of supernatant was added to white 384 well HTRF plates, followed by addition of 4 μL of HTRF cocktail in each well. Plates were quickly centrifuged, sealed and incubated overnight at room temperature. Next day, HTRF signal was read on a Pherastar and ratio of 665/620 was calculated based on manufacturer's protocol to obtain concentration of IL-1β in cell culture supernatant.

T1 sequence (Q96P20 whole entry): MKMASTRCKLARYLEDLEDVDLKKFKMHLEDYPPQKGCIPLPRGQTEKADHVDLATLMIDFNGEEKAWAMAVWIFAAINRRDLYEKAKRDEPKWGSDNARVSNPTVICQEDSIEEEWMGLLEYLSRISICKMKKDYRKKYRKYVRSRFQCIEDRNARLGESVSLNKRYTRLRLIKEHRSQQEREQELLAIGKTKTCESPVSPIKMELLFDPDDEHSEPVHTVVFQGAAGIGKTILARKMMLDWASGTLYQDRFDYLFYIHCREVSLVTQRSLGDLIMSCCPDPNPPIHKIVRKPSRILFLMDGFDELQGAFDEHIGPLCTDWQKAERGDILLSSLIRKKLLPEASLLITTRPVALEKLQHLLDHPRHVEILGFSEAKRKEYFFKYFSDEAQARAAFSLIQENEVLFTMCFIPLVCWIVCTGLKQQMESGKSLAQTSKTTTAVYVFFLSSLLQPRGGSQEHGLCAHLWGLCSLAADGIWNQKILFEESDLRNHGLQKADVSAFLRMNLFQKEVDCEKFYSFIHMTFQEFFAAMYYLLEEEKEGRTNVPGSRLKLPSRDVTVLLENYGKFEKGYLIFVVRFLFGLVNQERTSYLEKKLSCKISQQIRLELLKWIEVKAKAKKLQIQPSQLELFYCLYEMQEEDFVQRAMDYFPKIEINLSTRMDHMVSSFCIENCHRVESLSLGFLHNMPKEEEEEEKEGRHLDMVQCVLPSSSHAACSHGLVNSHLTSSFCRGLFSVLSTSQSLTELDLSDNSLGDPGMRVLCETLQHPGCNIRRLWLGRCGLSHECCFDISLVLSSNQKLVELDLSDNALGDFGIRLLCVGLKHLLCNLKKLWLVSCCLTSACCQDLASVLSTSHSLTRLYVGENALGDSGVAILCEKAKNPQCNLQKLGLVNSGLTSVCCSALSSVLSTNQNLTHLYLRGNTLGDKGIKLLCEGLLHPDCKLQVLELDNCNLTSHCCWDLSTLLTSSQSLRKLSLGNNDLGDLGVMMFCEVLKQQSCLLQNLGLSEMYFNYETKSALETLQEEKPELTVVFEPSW

Row | SMILES | IC50 [1] [µM] | IC50 [2] [µM] | IC50 ([3]; read-out: PMBC IL-1β IC50) [µM] | IC50 ([3]; PMBC IL-1β IC50 (μM)) [µM]
1 | COc1cc(C(C)C)c(NC(=O)NS(=O)(=O)c2cnn3c2OCC(CNC(C)=O)C3)c(C(C)C)n1 (racemic) [Example 40, N-((3-(N-((2,4-diisopropyl-6-methoxypyridin-3-yl)carbamoyl)sulfamoyl)-6,7-dihydro-5H-pyrazolo[5,1-b][1,3]oxazin-6-yl)methyl)acetamide] | 0.72 | 1.25 | 1.5 | 
2 | O=C(Nc1nc(Cl)cc(Cl)n1)NS(=O)(=O)c1cnn2c1OCCC2 [Example 4, N-((4,6-dichloropyrimidin-2-yl)carbamoyl)-6,7-dihydro-5H-pyrazolo[5,1-b][1,3]oxazine-3-sulfonamide] | > 20 |  | > 10 | 
3 | Cc1onc(-c2ccccc2)c1NC(=O)NS(=O)(=O)c1cnn2c1OCCC2 [Example 8, N-((5-methyl-3-phenylisoxazol-4-yl)carbamoyl)-6,7-dihydro-5H-pyrazolo[5,1-b][1,3]oxazine-3-sulfonamide] | > 20 | > 10 | > 10 | 
4 | CC(C)c1cc(Cl)nc(NC(=O)NS(=O)(=O)c2cnn3c2OCCC3)n1 [Example 16, N-((4-chloro-6-isopropylpyrimidin-2-yl)carbamoyl)-6,7-dihydro-5H-pyrazolo[5,1-b][1,3]oxazine-3-sulfonamide] | > 20 |  | > 10 | 
5 | O=C(Nc1nc(-c2ccccc2)cc(C(F)(F)F)n1)NS(=O)(=O)c1cnn2c1OCCC2 [Example 17, N-((4-phenyl-6-(trifluoromethyl)pyrimidin-2-yl)carbamoyl)-6,7-dihydro-5H-pyrazolo[5,1-b][1,3]oxazine-3-sulfonamide] | > 9.8 |  | > 10 | 
6 | COc1cc(OC)nc(NC(=O)NS(=O)(=O)c2cnn3c2OCCC3)n1 [Example 18, N-((4,6-dimethoxypyrimidin-2-yl)carbamoyl)-6,7-dihydro-5H-pyrazolo[5,1-b][1,3]oxazine-3-sulfonamide] | > 20 |  |  | > 10
7 | COc1cc(C)nc(NC(=O)NS(=O)(=O)c2cnn3c2OCCC3)n1 [Example 19, N-((4-methoxy-6-methylpyrimidin-2-yl)carbamoyl)-6,7-dihydro-5H-pyrazolo[5,1-b][1,3]oxazine-3-sulfonamide] | > 20 |  |  | > 10
8 | Cc1cc(C2CC2)nc(NC(=O)NS(=O)(=O)c2cnn3c2OCCC3)n1 [Example 21, N-((4-cyclopropyl-6-methylpyrimidin-2-yl)carbamoyl)-6,7-dihydro-5H-pyrazolo[5,1-b][1,3]oxazine-3-sulfonamide] | 12 |  | > 10 | 
9 | CC(C)(C)c1cc(C(C)(C)C)nc(NC(=O)NS(=O)(=O)c2cnn3c2OCCC3)n1 [Example 22, N-((4,6-di-tert-butylpyrimidin-2-yl)carbamoyl)-6,7-dihydro-5H-pyrazolo[5,1-b][1,3]oxazine-3-sulfonamide] | > 20 |  | > 10 | 
10 | O=C(Nc1nc(-c2ccccc2)cc2c1CCC2)NS(=O)(=O)c1cnn2c1OCCC2 [Example 23, N-((3-phenyl-6,7-dihydro-5H-cyclopenta[c]pyridin-1-yl)carbamoyl)-6,7-dihydro-5H-pyrazolo[5,1-b][1,3]oxazine-3-sulfonamide] | > 20 |  | > 10 | 
11 | Cc1nc(NC(=O)NS(=O)(=O)c2cnn3c2OCCC3)nc2c1CCCC2 [Example 24, N-((4-methyl-5,6,7,8-tetrahydroquinazolin-2-yl)carbamoyl)-6,7-dihydro-5H-pyrazolo[5,1-b][1,3]oxazine-3-sulfonamide] | > 20 |  | > 10 | 
12 | Cc1cc(C)nc(NC(=O)NS(=O)(=O)c2cnn3c2OCCC3)n1 [Example 25, N-((4,6-dimethylpyrimidin-2-yl)carbamoyl)-6,7-dihydro-5H-pyrazolo[5,1-b][1,3]oxazine-3-sulfonamide] | > 20 |  | > 10 | 
13 | COc1cc(C(C)C)c(NC(=O)NS(=O)(=O)c2cnn3c2OCCC3)c(C(C)C)n1 [Example 30, N-((2,4-diisopropyl-6-methoxypyridin-3-yl)carbamoyl)-6,7-dihydro-5H-pyrazolo[5,1-b][1,3]oxazine-3-sulfonamide] | 1.8 | 0.73 | 0.85 | 
14 | CC(C)c1nn(C(C)C)c(C(C)C)c1NC(=O)NS(=O)(=O)c1cnn2c1OCCC2 [Example 33, N-((1,3,5-triisopropyl-1H-pyrazol-4-yl)carbamoyl)-6,7-dihydro-5H-pyrazolo[5,1-b][1,3]oxazine-3-sulfonamide] | 4 | 4.51 | 4.96 | 
15 | CC(C)c1cc(OC2CC2)nc(C(C)C)c1NC(=O)NS(=O)(=O)c1cnn2c1OCCC2 [Example 81, Sodium N-((6-cyclopropoxy-2,4-diisopropylpyridin-3-yl)carbamoyl)-6,7-dihydro-5H-pyrazolo[5,1-b][1,3]oxazine-3-sulfonamide] | 8.2 |  |  | 
16 | CC(C)c1cc(C(F)(F)F)nc(C(C)C)c1NC(=O)NS(=O)(=O)c1cnn2c1OCC(C)(C)C2 [Example 82, N-((2,4-diisopropyl-6-(trifluoromethyl)pyridin-3-yl)carbamoyl)-6,6-dimethyl-6,7-dihydro-5H-pyrazolo[5,1-b][1,3]oxazine-3-sulfonamide] | 1.4 |  |  | 
